In patent US6703413B2 (Rhode Island Hospital, priority 1999, dated 2004):
Where two headings read alike, the source gives them in different places.

Columns and labels:
[1] = system: PA-1 human ovarian tumor cells; assay: Phosphotidylserine externalization, Annexin-V FITC binding; assay type: cell-based; settings: PA-1, 24 h exposure
Method: (§1) Three×10^5 cells were seeded in plastic tissue culture flasks. […] Control cultures received an appropriate volume of Kollidine-17P. After an additional 24 h, cells were harvested and phosphotidylserine externalization determined by assessing Annexin-V FITC binding using cytofluorometric techniques. Each bar represents the mean±SE of four determinations. ** p≦0.01, *** p0.001
(§2) Cell membrane phosphotidylserine externalization, as a reflection of the potential induction of apoptosis, was assessed by flow cytometry methods using the ApoAlert® Annexin-V/FITC assay kit. Briefly, 1×10^6 cells were incubated for 24 h in tissue culture medium containing serum. […] Control cultures received 5% Kollidon 17 PF alone. Twenty-four hours later, all cells were harvested by trypsinization. The harvested cells were resuspended in 200 μl of binding buffer and then incubated for 5-15 min in a solution containing 1 μg/ml Annexin-V FITC at room temperature in the dark. The cells were then analyzed to quantitate Annexin-V binding by cytofluorometric techniques that utilized FACScan using the ModFit LT program with statistical analysis as described above.

[2] = system: SKOV-3 human ovarian tumor cells; assay: as above; assay type: cell-based; settings: SKOV-3, 24 h exposure
Method: as §1, §2

[3] = system: SKOV3 human ovarian tumor cell line; assay: Mouse model of recurrent ovarian cancer, intraperitoneal lavage; assay type: in vivo, Holland Sprague-Dawley mice; settings: i.p. lavage from 5 days after 5×10^6 tumor cells, 3 times a day for 4 days, 30 mg/day
Method: Holland Sprague-Dawley mice were injected with 5×10^6 tumor cells (e.g., SKOV3 human ovarian tumor cell line) to mimic a condition of advanced ovarian cancer. […] At least a 75-80% reduction in tumor foci was observed.

3T3 cells = assay: DNA fragmentation, agarose-gel electrophoresis; assay type: cell-based; settings: identical regimen, 50 μM
[4] = system: HL-60 human promyelocytic cell line; assay: Apoptosis induction in non-adherent cancer cells; assay type: cell-based
[5] = system: activated human T-cell cultures; assay: Cytotoxic and apoptotic activity in normal primary cells; assay type: cell-based
From the text: (§3) This observation was confirmed using normal (non-tumor) primary cells derived from animals, which are known to be free of tumors.

[6] = system: normal murine bone marrow cultures; assay: as above; assay type: cell-based
From the text: as §3

[7] = system: TNF; interleukins 1, 6, and 10; VEGF; TGF; assay: Factors controlling angiogenesis in treated patients; assay type: in vivo, human; settings: metastatic colon cancer patients, compared to placebo
Method: Patients with metastatic colon cancer were treated with taurolidine and several factors controlling angiogenesis were measured.

[8] = Taurolidine-induced toxicity, 3 d i.p. bolus injection regimen; assay type: in vivo; settings: for mortality (%): i.p., 3 consecutive days
Method: Control animals received 1 ml injections of 5% Kollidon 17 PF alone. Animals were examined daily and body weight recorded twice weekly. A reduction in body weight of greater than 10% was considered significant. The maximally tolerated dose (MTD) was considered to be the dose which produced ˜10% mortality.
During the injection regimen, and daily thereafter for 30 d, mice were weighed and examined. Experiments were repeated a minimum of three times and mortality and weight loss data pooled.

[9] = system: DU-145 prostate tumor cells; assay: Cell growth inhibition, 3 d exposure, cell counting; assay type: cell-based, human
Method: (§4) One ml of this cell suspension was added to each well of a 12 well cell culture plate that contained 3 ml of appropriate media plus serum. […] Control wells received 40 μl of 5% Kollidon 17 PF alone. Seventy-two hours later, all cells were harvested by trypsinization and cell number determined electronically using a Coulter Model Z1 particle counter (Coulter Corp., Miami, Fla.) to assess cell growth inhibition. Each experiment was performed in duplicate and repeated a minimum of three times.
(§5) Cells were seeded at a density of 1-5×10^4 cells in each well of a 6 well tissue culture flask. […] After three days, cells were harvested by trypsinization and cell number determined electronically. Cell growth inhibition was determined by comparison to non-Taurolidine exposed control cultures. The IC50 was calculated as the concentration required to inhibit cell number by 50%.

H-596 lung tumor cells = assay: as above; assay type: cell-based, human
Method: as §4, §5

HCT-15 colon tumor cells = assay: as above; assay type: cell-based, human
Method: as §4, §5

HCT-8 colon tumor cells = assay: as above; assay type: cell-based, human
Method: as §4, §5

NIH-3T3 cells = assay: PARP cleavage, Western-blot; assay type: cell-based, murine; settings: NIH-3T3, 24 h exposure to 50 or 100 μM
Method: (§6) Two×10^6 cells were seeded in 150 cm^2 tissue culture flasks. […] After an additional twenty-four hours, cells were harvested, cell number determined, and aliquots derived from equal cell numbers generated from each exposure condition. Total proteins from these whole cell lysates were separated by SDS-PAGE and transferred to nitrocellulose filters. Filters were then immunoblotted to detect intact PARP protein and cleavage fragments by using the clone C-2-10 mouse monoclonal anti-PARP antibody (Zymed Laboratories, San Francisco, Calif.). The resulting protein-antibody complexes were visualized by chemiluminescence techniques.
(§7) Western-blot analysis was used to assess of PARP cleavage. Two×10^6 cells were seeded into separate 75 cm^2 tissue culture flasks containing 20 ml of tissue culture media plus serum. […] Twenty-four hours after the addition of Taurolidine, cells were harvested cell number determined, and aliquots containing an equal cell number were generated from each exposure condition. Total proteins from whole cell lysates generated from these aliquots were separated by SDS-PAGE and electrotransferred to nitrocellulose filters. Filters were then processed to detect intact PARP protein and cleavage fragments by using the clone C-2-10 mouse monoclonal anti-PARP antibody (Zymed Laboratories, San Francisco, Calif.). […]

[10] = system: MDR-transfected glioblastoma cells; assay: Cytotoxicity in drug resistant glioblastoma cells; settings: 50 μM
From the text: The neoplastic cell lines used in the survey were standard tumor cell lines, e.g., PA1 human ovarian cell line, SKOV3 human ovarian cell line, HT29 human colon tumor cell line, DU145 human prostate tumor cell line, U251 human glioblastoma cell line, U251-MDR human glioblastoma cell line transfected with DNA encoding MDR, T98G human glioblastoma cell line, SP-1 human leukemia cell line, and Daudi human leukemia cell line.
Glioblastoma cells were transfected with a gene encoding multiple drug resistance (MDR).

SKOV-3 cells = assay: PARP cleavage, Western-blot; assay type: cell-based, human; settings: SKOV-3, 24 h exposure to 50 μM or 100 μM
Method: as §6, §7

PA-1 cells = assay: PARP cleavage, Western-blot; assay type: cell-based, human; settings: PA-1, 24 h exposure to 50 μM or 100 μM
Method: as §6, §7

ovarian tumor cells = assay: DNA fragmentation, agarose-gel electrophoresis; assay type: cell-based, human; settings: 50 μM

For `O=S1(=O)CCN(CN2CCS(=O)(=O)NC2)CN1` [Taurolidine, Bis-(1,1-dioxoperhydro-1,2,4-thiadiazinyl-4)methane], the “increase in Annexin-V binding” value [1] was 4 fold, the “increase in Annexin-V binding” value [2] was 3 fold and the “reduction in tumor foci” value [3] was 75-80%. The DNA fragmentation (3T3 cells) was “not apparent”, the “exposure time that induces apoptosis” value [4] was 90 min and the cytotoxicity [5] was “not cytotoxic in the high μM range”. For the same compound, the “concentrations required to inhibit cell proliferation” value ([6]; normal murine bone marrow) was “mM range”, the cytotoxicity ([6]; normal murine bone marrow cultures) was “not cytotoxic in the high μM range” and the “factors controlling the growth of blood vessels” value [7] was “decreased”. For the same compound, the “mortality (%)” value ([8]; 10 mg/mouse/inj) was 6%, the “mortality (%)” value ([8]; 20 mg/mouse/inj) was 13% and the “mortality (%)” value ([8]; 25 mg/mouse/inj) was 47%. For the same compound, the “mortality (%)” value ([8]; 30 mg/mouse/inj) was 100%, the tolerability ([8]; daily doses below 15 mg/mouse (~650 mg/kg), 3 d i.p. regimen) was “well-tolerated” and the MTD ([8]; mouse, in vivo, ip) was 20 mg/inj. For the same compound, the “maximally tolerated dose (MTD)” value ([8]; mouse, in vivo, ip) was 20 mg/mouse, the IC50 [9] was 9.8 ± 0.8 µM and the IC50 ([9]; Homo sapiens, DU-145, 72 h) was ~10 µM. For the same compound, the IC50 (H-596 lung tumor cells) was 34.2 µM, the IC50 (H-596 lung tumor cells; Homo sapiens, NCI-H596, 72 h) was ~35 µM and the IC50 (HCT-15 colon tumor cells) was 9.6 ± 3 µM. For the same compound, the IC50 (HCT-15 colon tumor cells; Homo sapiens, HCT-15, 72 h) was ~10 µM, the IC50 (HCT-8 colon tumor cells) was 11.5 ± 0.5 µM and the IC50 (HCT-8 colon tumor cells; Homo sapiens, HCT-8, 72 h) was ~10 µM. For the same compound, the PARP cleavage (NIH-3T3 cells) was “little evidence of this proteolytic event”, the cytotoxicity [10] was “Significant cytotoxicity” and the PARP cleavage (SKOV-3 cells) was “resulted in PARP cleavage”. The PARP cleavage (PA-1 cells) was “resulted in PARP cleavage” and the DNA fragmentation (ovarian tumor cells) was “overt DNA fragmentation”.
